The values below come from patent US5087627A, “Agent for treatment of disorders of the cerebro-neural transmission system” (Santen Pharmaceutical Co., Ltd., priority 1989, dated 1992).

The structures appear in SMILES notation. Where a name gives a salt, the structure may show the parent alone. Read-outs that look alike come from different tables or passages of the source.

The target of experiment [1] is T1, 5-HT2 receptor (Oryctolagus cuniculus, UniProt G1SYA7).
T1 construct: The isolated arteries were helically cut into strips; from tissue; host or cells: thoracic aorta of Japanese white rabbit (helical strips)
The experiment is described as follows: antagonistic test against 5-HT2 using vessel (thoracic aorta) of rabbit, 5-HT-induced contraction. The arrangement: species or system tissue, rabbit (Japanese white).
Method: Therefore, in this test, the efficacy of the Compound was examined using thoracic aorta of rabbit.
Japanese white rabbits were sacrificed by cervical fracture and exsanguinated. Thoracic aortas were exciesd rapidly. The isolated arteries were helically cut into strips, approximately 3 mm wide, and suspended in 20 ml organ bath chambers containing Krebs-Henseleit solution. Resting tensions of aortas were maintained in 1.5 g. The organ bath chambers were maintained at 37° C. and aerated continuously with 95% O2 -5% CO2.
After equilibration, 5-HT (10^-6 M) was added into each organ bath chamber. After the 5-HT-induced contraction was ascertained to be constant and reproducible, each test compound were added and 30 minutes after 5-HT was added again, and their effect on 5-HT induced contraction was examined.
The contraction was measured with various concentrations of the test compound. According to the difference between the contraction caused by pre-treatment with the test compound and by 5-HT alone, the concentration which can inhibit 50% of the contraction caused by 5-HT alone was calculated (IC50).

For experiment [2] the following is noted: in words, prior art; cited from earlier work.
For experiment [3], the system named is PCA - induced amnesia (impairment of memory). In words: one-trial passive avoidance test in mice, PCA - induced amnesia model.
The test system of experiment [4] is CXM - induced amnesia (impairment of memory). Details: species or system mice. The following applies: mouse, in vivo.

T1 sequence (G1SYA7 1-469): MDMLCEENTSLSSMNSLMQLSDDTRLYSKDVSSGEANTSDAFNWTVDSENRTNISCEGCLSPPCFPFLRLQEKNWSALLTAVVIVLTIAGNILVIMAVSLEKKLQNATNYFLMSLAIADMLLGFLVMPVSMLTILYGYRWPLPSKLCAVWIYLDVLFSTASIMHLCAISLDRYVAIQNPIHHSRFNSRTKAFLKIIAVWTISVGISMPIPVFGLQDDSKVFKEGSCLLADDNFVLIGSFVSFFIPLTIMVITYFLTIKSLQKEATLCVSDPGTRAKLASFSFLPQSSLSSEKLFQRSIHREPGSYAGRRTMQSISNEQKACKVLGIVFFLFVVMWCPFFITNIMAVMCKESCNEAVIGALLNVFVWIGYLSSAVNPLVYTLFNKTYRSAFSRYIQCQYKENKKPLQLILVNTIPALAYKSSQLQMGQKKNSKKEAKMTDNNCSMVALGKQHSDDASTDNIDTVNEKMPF

In experiment [1], `COc1ccc(CCN2CCN(C(Cc3ccccc3)c3ccncc3)CC2)cc1OC` (racemic) [compound 8, (±)-1-[2-Phenyl-1-(4-pyridyl)ethyl]-4-[2-(3,4-dimethoxyphenyl)ethyl]piperazine dioxalate] returned an IC50 of 7 µM. For the molecule `CN(C)C(Cc1ccccc1)c1ccccc1` (single isomer, unassigned; (-)) [lefetamine, (-)-N,N-dimethyl-1,2-diphenylethylamine], in experiment [2], the analgesic effect result is listed as “excellent analgesic effect”. Consider `Fc1ccc(CC(c2ccc(F)cc2)N2CCN(CCOc3ccc4c(c3)OCO4)CC2)cc1` (racemic) [compound No. 10, (±)-1-[1,2-Bis(4-fluorophenyl)]ethyl-4-[2-[(3,4-methylenedioxy)phenoxy]ethyl]piperazine dihydrochloride], for which, in experiment [1] (rabbit thoracic aorta strips, 5-HT 10^-6 M, 30 minutes pre-treatment, 37° C., read-out: IC50 (concentration which can inhibit 50% of the contraction caused by 5-HT alone)), the IC50 turned out to be 2.1 µM. The “step-down latency (median)” value in experiment [3] (PCA 5 mg/kg i.p., test compound 1.25 mg/kg p.o., 24 h after training, cut off 300 sec) is 206.3 s. As for `c1ccc(CC(c2cccnc2)N2CCN(CCOc3ccc4c(c3)OCO4)CC2)cc1` (racemic) [compound 9, (±)-1-[(2-Phenyl)-1-(3-pyridyl)ethyl]-4-[2-(3,4-methylenedioxyphenoxy)ethyl]piperazine dioxalate], the IC50 in experiment [1] turned out to be 4.8 µM.

As to `c1ccc(CC(c2ccccc2)N2CCN(CCOc3ccc4c(c3)OCO4)CC2)cc1` (racemic) [compound No. 7, (±)-1-(1,2-Diphenyl)ethyl-4-[2-(3,4-methylenedioxyphenoxy)ethyl]piperazine dihydrochloride], the “step-down latency (median)” value was 123.9 s in experiment [4] and 155.1 s in experiment [3] (mouse, in vivo). Besides, the IC50 in experiment [1] stood at 2.7 µM.
